Legend:
HDAC6/8 = assay: Quantitative proteomics of cellular protein abundance in Kelly cells: HDAC6/8; assay type: cell-based, human; details: for change of cellular HDAC6/8 protein levels (heat map FIG. 3): 1 μM, 5 hours, compared to DMSO control; for reduction in HDAC6/8 protein levels compared to DMSO treated cells: moderated t-test, scatter plots FIG. 2A-2C, 4A-4B
Protocol: Lysis buffer (8 M Urea, 50 mM NaCl, 50 mM 4-(2hydroxyethyl)-1-piperazineethanesulfonic acid (EPPS) pH 8.5, protease and phosphatase inhibitors from Roche®) were added to the cell pellets and homogenized by 20 passes through a 21 gauge (1.25 in. long) needle to achieve a cell lysate with a protein concentration between 1-4 mg mL^−1. A micro-BCA assay (Pierce™) was used to determine the final protein concentration in the cell lysate. 200 μg of protein for each sample were reduced and alkylated as described in Donovan et al., Elife 7:e38430 (2018).
Proteins were precipitated using methanol/chloroform. Four volumes of methanol were added to the cell lysate, followed by one volume of chloroform, and finally three volumes of water. The mixture was vortexed and centrifuged to separate the chloroform phase from the aqueous phase. The precipitated protein was washed with three volumes of methanol, centrifuged and the resulting washed precipitated protein was allowed to air dry. The precipitated protein was resuspended in 4 M Urea, 50 mM HEPES pH 7.4, followed by dilution to 1 M urea with the addition of 200 mM EPPS, pH 8. Proteins were first digested with LysC (1:50; enzyme:protein) for 12 hours at room temperature. The LysC digestion was diluted to 0.5 M Urea with 200 mM EPPS pH 8 followed by digestion with trypsin (1:50; enzyme:protein) for 6 hours at 37° C. Tandem mass tag (TMT) reagents (Thermo Fisher Scientific) were dissolved in anhydrous acetonitrile (ACN) according to manufacturer's instructions.
Anhydrous ACN was added to each peptide sample to a final concentration of 30% v/v, and labeling was induced with the addition of TMT reagent to each sample at a ratio of 1:4 peptide:TMT label. The 10-plex labeling reactions were performed for 1.5 hours at room temperature and the reaction quenched by the addition of hydroxylamine to a final concentration of 0.3% for 15 minutes at room temperature. The sample channels were combined at a 1:1:1:1:1:1:1:1:1:1:1 ratio, desalted using C18 solid phase extraction cartridges (Waters®) and analyzed by LC-MS for channel ratio comparison. Samples were then combined using the adjusted volumes determined in the channel ratio analysis and dried down in a speed vacuum. The combined sample was then resuspended in 1% formic acid, and acidified (pH 2-3) before being subjected to desalting with C18 SPE (Sep-Pak®, Waters®). Samples were then offline fractionated into 96 fractions by high pH reverse-phase HPLC (Agilent® LC1260) through an aeris peptide xb-c18 column (Phenomenex®) with mobile phase A containing 5% acetonitrile and 10 mM NH4HCO3 in LC-MS grade H2O, and mobile phase B containing 90% acetonitrile and 10 mM NH4HCO3 in LC-MS grade H2O (both pH 8.0). The 96 resulting fractions were then pooled in a non-continuous manner into 24 fractions and these fractions were used for subsequent mass spectrometry analysis.
Data were collected using an Orbitrap Fusion™ Lumos™ mass spectrometer (Thermo Fisher Scientific, San Jose, Calif., USA) coupled with a Proxeon EASY-nLC™ 1200 LC pump (Thermo Fisher Scientific). Peptides were separated on an EasySpray™ ES803 75 μm inner diameter microcapillary column (ThermoFisher Scientific).
Each analysis used an MS3-based TMT method as described in McAlister et al., Anal. Chem. 86(14):7150-7158 (2014). The data were acquired using a mass range of m/z 340-1350, resolution 120,000, automatic gain control (AGC) target 1×10^6, maximum injection time 100 ms, dynamic exclusion of 120 seconds for the peptide measurements in the Orbitrap Fusion™ Lumos™ mass spectrometer. Data dependent MS2 spectra were acquired in the ion trap with a normalized collision energy (NCE) set at 55%, AGC target set to 1.5×10^5 and a maximum injection time of 150 ms. […]

[1] = target: T1, full length human HDAC8-EGFP (Homo sapiens, UniProt Q9BY41); assay: HDAC8 reporter assay (HDAC8-EGFP with mCherry reporter); assay type: cell-based; details: 5 hour treatment, FIG. 6; hook effect at higher concentrations
T1 construct: Cells stably expressing the full length human HDAC8-EGFP with mCherry reporter; expressed in transfected cells; Cilantro2 vector (Addgene, 74450)
T1 sequence (Q9BY41 1-377): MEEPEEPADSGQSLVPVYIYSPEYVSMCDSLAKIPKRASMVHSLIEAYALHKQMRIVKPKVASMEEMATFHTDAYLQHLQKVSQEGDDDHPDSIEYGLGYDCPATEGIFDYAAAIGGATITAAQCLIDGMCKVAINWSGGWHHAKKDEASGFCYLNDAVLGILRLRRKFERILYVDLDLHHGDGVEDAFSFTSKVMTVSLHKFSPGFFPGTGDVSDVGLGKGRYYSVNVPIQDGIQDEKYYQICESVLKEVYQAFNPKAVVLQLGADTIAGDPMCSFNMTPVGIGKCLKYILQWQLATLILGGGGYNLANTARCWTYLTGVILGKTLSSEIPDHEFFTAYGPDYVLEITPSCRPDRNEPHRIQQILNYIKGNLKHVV
Protocol: Cells stably expressing the full length human HDAC8-EGFP with mCherry reporter in Cilantro2 vector (Addgene, 74450) were seeded at 30-50% confluency in 384-well plates with 50 μL FluoroBrite™ DMEM media (Thermo Fisher Scientific, A18967) containing 10% FBS per well a day before compound treatment. Compounds were dispensed using a D300e Digital Dispenser (HP), normalized to 0.5% DMSO, and incubated with cells for 5 hours. The assay plate was imaged immediately using an Acumen® High Content Imager (TTP Labtech) with 488 nm and 561 nm lasers in […] per well format. The resulting images were analyzed using CellProfiler™.
A series of image analysis steps (‘image analysis pipeline’) was constructed. First, the red and green channels were aligned and cropped to target the middle of each well (to avoid analysis of heavily clumped cells at the edges), and a background illumination function was calculated for both red and green channels of each well individually and subtracted to correct for illumination variations across the 384-well plate from various sources of error. An additional step was then applied to the green channel to suppress the analysis of large auto fluorescent artifacts and enhance the analysis of cell specific fluorescence by way of selecting for objects under a given size, 30 A.U., and with a given shape, speckles. mCherry-positive cells were then identified in the red channel filtering for objects between 8-60 pixels in diameter and using intensity to distinguish between clumped objects. The green channel was then segmented into GFP positive and negative areas and objects were labeled as GFP positive if at least 40% of it overlapped with a GFP positive area. The fraction of GFP-positive cells/mCherry-positive cells in each well was then calculated, and the green and red images were rescaled for visualization. The values for the concentrations that lead to a 50% degradation (DC50) were calculated using the nonlinear fit variable slope model in GraphPad Prism software.

SMILES: O=C(/C=C/c1ccc(CN(CCCCCNc2cccc3c2C(=O)N(C2CCC(=O)NC2=O)C3=O)CCc2c[nH]c3ccccc23)cc1)NO (stereo not drawn) [Compound 3, (E)-3-(4-(((2-(1H-indol-3-yl)ethyl)(5-((2-(2,6-dioxopiperidin-3-yl)-1,3-dioxoisoindolin-4-yl)amino)pentyl)amino)methyl)phenyl)-N-hydroxyacrylamide]
- change of cellular HDAC6/8 protein levels (heat map FIG. 3) (HDAC6/8): induced down-regulation
- reduction in HDAC6/8 protein levels compared to DMSO treated cells (HDAC6/8): significant reduction
- degradation of GFP tagged HDAC8 in the reporter cell lines [1]: degradation of GFP tagged HDAC8

SMILES: O=C(/C=C/c1ccc(CN(CCOCCOCCNc2cccc3c2C(=O)N(C2CCC(=O)NC2=O)C3=O)CCc2c[nH]c3ccccc23)cc1)NO (stereo not drawn) [Compound 1, (E)-3-(4-(((2-(1H-indol-3-yl)ethyl)(2-(2-(2-((2-(2,6-dioxopiperidin-3-yl)-1,3-dioxoisoindolin-4-yl)amino)ethoxy)ethoxy)ethyl)amino)methyl)phenyl)-N-hydroxyacrylamide]
- change of cellular HDAC6/8 protein levels (heat map FIG. 3) (HDAC6/8): induced down-regulation
- reduction in HDAC6/8 protein levels compared to DMSO treated cells (HDAC6/8): significant reduction
- degradation of GFP tagged HDAC8 in the reporter cell lines [1]: degradation of GFP tagged HDAC8

SMILES: O=C(/C=C/c1ccc(CN(CCOCCNc2cccc3c2C(=O)N(C2CCC(=O)NC2=O)C3=O)CCc2c[nH]c3ccccc23)cc1)NO (stereo not drawn) [Compound 2, (E)-3-(4-(((2-(1H-indol-3-yl)ethyl)(2-(2-((2-(2,6-dioxopiperidin-3-yl)-1,3-dioxoisoindolin-4-yl)amino)ethoxy)ethyl)amino)methyl)phenyl)-N-hydroxyacrylamide]
- change of cellular HDAC6/8 protein levels (heat map FIG. 3) (HDAC6/8): induced down-regulation
- reduction in HDAC6/8 protein levels compared to DMSO treated cells (HDAC6/8): significant reduction
- degradation of GFP tagged HDAC8 in the reporter cell lines [1]: degradation of GFP tagged HDAC8
